Results: patent publication US20210387983A1, “CRYSTALLINE ALK5 INHIBITORS AND USES THEREOF” (THERAVANCE BIOPHARMA R&D IP, LLC, priority 2020, published 2021)

Experiments:
[1] = tested on: TGF-β-stimulated SMAD3 phosphorylation in BEAS-2B cells; assay: Cellular ALK5 potency assay, inhibition of TGF-β stimulated pSMAD3 formation in BEAS-2B cells; format: cell-based; settings: Homo sapiens, 1 hour compound incubation, TGF-β 10 ng/mL for 30 minutes, read-out: pIC50 value, inhibition of TGF-β-stimulated pSMAD3 formation (converted)
Method: The potency of the compound of Formula I for inhibition of TGF-β-stimulated SMAD3 phosphorylation was measured in BEAS-2B cells, a human lung epithelial cell line. TGF-β signals through activin receptor-like kinase 5 (ALK5) immediately prior to SMAD3 phosphorylation.
BEAS-2B cells were grown using 50% DMEM (Life Technologies) and 50% F-12 (Life Technologies) media, supplemented with 10% Fetal Bovine Serum (ATCC), 25 mM HEPES (Life Technologies), and 1× Pen-Strep (Life Technologies). Cells were cultured in a humidified incubator set at 37° C., 5% CO2, and trypsonized using 0.25% Trypsin with 0.5% polyvinylpyrrolidone (PVP).
For the assay, BEAS-2B cells were seeded at 7,500 cells/well (25 μL/well) in a 384-well plate and cultured overnight. Before dosing, growth media was aspirated and the wells were rinsed with HBSS Buffer (HBSS with Calcium and Magnesium, Life Technologies) supplemented with 25 mM HEPES (Life Technologies) and 1% Bovine Serum Albumin (Roche). […] AlphaLISA Acceptor and Detector beads (PerkinElmer) were added 2 hours apart, then incubated overnight to be read the next day. The potency of the compound was determined through analysis of dose-dependent quantified changes in pSMAD3 signal from baseline (non-compound treated TGF-β stimulated cells). Data are expressed as pIC50 (negative decadic logarithm IC50) values.

[2] = In vitro human liver microsome intrinsic clearance (HLM Clint); format: in vitro ADME; settings: liver microsomes, pH 7.4, 0.1 μM test compound, 0.1 mg/mL protein, 1 mM NADPH, 37° C.
Method: Liver microsomes were used for in vitro determination of hepatic clearance of the compound of Formula I. A microsomal incubation cofactor solution was prepared with 100 mM potassium phosphate buffered to pH 7.4 (BD Biosciences, Woburn, Mass.) supplemented with 2 mM NADPH (Sigma-Aldrich, St. Louis, Mo.). 10 mM DMSO stocks of test compound were diluted and spiked into the cofactor solution to yield a 0.2 μM concentration (0.02% v/v DMSO). Aliquots of frozen human liver microsomes (Bioreclamation IVT, Baltimore Md.) were thawed and diluted into 100 mM potassium phosphate buffer to yield microsomal protein concentrations of 0.2 mg/mL. Cofactor/drug and microsomal solutions were pre-warmed separately for 4 minutes in a water bath held at 37° C. Incubations (n=1) were started by the combination of equal volumes of cofactor/drug solution with microsomal solution. The final concentration of test compound was 0.1 μM with a final protein concentration of 0.1 mg/mL and final NADPH concentration of 1 mM. Samples were collected at times 0, 3, 8, 15, 30, and 45 minutes to monitor the disappearance of test compound. At each time point, 50 μL of incubation sample was removed and spiked into 25 μL of water plus 3% formic acid plus Internal Standard for reaction termination. Samples were then injected onto an AB Sciex API 4000 triple quadrupole mass spectrometer for quantitation by LC-MS/MS. […]

[3] = tested on: syngeneic cancer models (4T1 cells, CT26 cells); assay: Efficacy study in syngeneic cancer model (4T1 or CT26 cells); format: in vivo, BALB/c mice
From the text: The compound of Formula I is expected to suppress tumor growth in syngeneic cancer models when administered alone or in combination with an immunotherapeutic agent. Six- to 8-week old BALB/c mice are used for in vivo efficacy studies in accordance with IACUC guidelines. Commercially available 4T1 cells (0.5-2.0×10^4 cells/mouse) are implanted subcutaneously into the right flanks of BALB/c mice. When the tumor reaches a palpable size of approximately 8-10 mm in diameter, the primary tumors are surgically removed, and the mice are randomly assigned to vehicle control or compound treatment groups. Alternatively, CT26 cells (0.5-2.0×10^4 cells/mouse) are injected intravenously into BALB/c mice to generate the cancer model. […]
Body weight is measured twice weekly. Following 2- to 4-weeks of treatment, the lung and liver of each animal is harvested, and the number of metastatic cells in each tissue sample determined using a clonogenic metastasis assay. […]

[4] = tested on: monocrotaline (MCT) model of severe pulmonary hypertension; assay: Efficacy study in monocrotaline model of severe pulmonary hypertension; format: in vivo, Sprague-Dawley rats; settings: MCT 60 mg/kg s.c.; oral aspiration, 2-weeks of treatment
Method: Male Sprague-Dawley rats are tagged, weighed, and randomly divided into control and MCT-treated groups. The rats in the MCT-treated group are administered a single dose of MCT (60 mg/kg, s.c.), then treated with either (1) vehicle control; (2) sildenafil (30 mg/kg, p.o., b.i.d.); or (3) the compound of Formula I at an appropriate amount and frequency (formulated in 3% glycerol in PBS; pH=4) via oral aspiration.
Following 2-weeks of treatment, the animals are anesthetized with ketamine/xylazine for terminal monitoring of pulmonary and systemic arterial pressures along with heart rate. The lungs of each animal are then harvested for histologic analysis.

## C[C@@H]1CN(CCNc2cnc3ccc(-c4nc[nH]c4-c4cc(Cl)ccc4F)nc3c2)C[C@H](C)N1 [compound of Formula I, 6-(5-(5-chloro-2-fluorophenyl)-1H-imidazol-4-yl)-N-(2-((3S,5R)-3,5-dimethylpiperazin-1-yl)ethyl)-1,5-naphthyridin-3-amine]
[1]
  IC50: 0.0251 to 0.158 µM
[2]
  microsomal CLint at 0.1 μM: > 250 µL/min/mg
[3]; combination with immunotherapeutic agent (e.g., pembrolizumab or durvalumab), relative to either single agent alone
  lung tumor burden in combination with an immunotherapeutic agent: increased reduction in lung tumor burden
[3]; compound alone, oral aspiration or intranasally, 2- to 4-weeks of treatment
  lung tumor burden: reduction in lung tumor burden
[4]
  progression of pulmonary hypertension: slow, halt or reverse the progression of pulmonary hypertension
